Laboratory results taken from patent publication US20120029083A1, “POLYMORPHIC FORMS OF ALISKIREN HEMIFUMARATE AND PROCESS FOR PREPARATION THEREOF” (Teva Pharmaceutical Industries, Ltd., priority 2007, published 2012).
Read-outs that look alike come from different tables or passages of the source.

Settings: pressed at 2 tons for 1 minute
Method: ARL X-ray powder diffractometer model X′TRA-030, Peltier detector, round standard aluminum sample holder with round zero background quartz plate (or silicon plate in the case of Form XIV) was used. The cathode is CuKα radiation, λ=1.5418 Å. Scanning parameters: Range: 2-40°2θ, continuous Scan, Rate: 3 deg/min. The accuracy of peak positions is defined as +/−0.2° due to experimental differences like instrumentations, and sample preparations.
The formulation was mixed and pressed to a tablet. The applied pressure was 2 tons for 1 minute.
The formulation is mixed and pressed to a tablet. The applied pressure is 2 tons for 1 minute.

COCCCOc1cc(C[C@@H](C[C@H](N)[C@@H](O)C[C@H](C(=O)NCC(C)(C)C(N)=O)C(C)C)C(C)C)ccc1OC.COCCCOc1cc(C[C@@H](C[C@H](N)[C@@H](O)C[C@H](C(=O)NCC(C)(C)C(N)=O)C(C)C)C(C)C)ccc1OC.O=C(O)/C=C/C(=O)O [amorphous aliskiren hemifumarate, (2S,4S,5S,7S)-N-(2-Carbamoyl-2-methylpropyl)-5-amino-4-hydroxy-2,7-diisopropyl-8-[4-methoxy-3-(3-methoxypropoxy)phenyl]-octanamide hemifumarate]
conversion of amorphous form to a crystalline phase in pressed tablet (XRPD) (formulation Example 67 (microcrystalline cellulose, PVP, crosspovidone, aerosil 200, Mg stearate)): No conversion of the amorphous Aliskiren to a crystalline phase
conversion of amorphous form to a crystalline phase in pressed tablet (XRPD) (formulation Example 68 (lactose monohydrate, PVP, crosspovidone, Mg stearate), written in present tense): No conversion of the amorphous Aliskiren to a crystalline phase
